Article PMC11470957, “Principles of paralog-specific targeted protein degradation engaging the C-degron E3 KLHDC2” (Nature Communications, 2024)
Where two headings read alike, the source gives them in different places.

Target: BRD2 (Homo sapiens, UniProt P25440)
Experiment: Western blot of BRD2 levels after cellular dosing
Details: for remaining activity at 2.19382 µM: Log SJ46420 (uM) 2.19382; for remaining activity at 2.79588 µM: Log SJ46420 (uM) 2.79588; for remaining activity at 3.09691 µM: Log SJ46420 (uM) 3.09691; for remaining activity at 3.39794 µM: Log SJ46420 (uM) 3.39794; for remaining activity at 3.69897 µM: Log SJ46420 (uM) 3.69897; for remaining activity at 4 µM: Log SJ46420 (uM) 4
[1] = 22Rv1, read-out: BRD2 (DMSO = 100), 22Rv1 cells, Rep1, Rep2
[2] = PC-3, read-out: BRD2 (DMSO = 100), PC3 cells, Rep1, Rep2

BRD2, sequence (P25440 whole entry): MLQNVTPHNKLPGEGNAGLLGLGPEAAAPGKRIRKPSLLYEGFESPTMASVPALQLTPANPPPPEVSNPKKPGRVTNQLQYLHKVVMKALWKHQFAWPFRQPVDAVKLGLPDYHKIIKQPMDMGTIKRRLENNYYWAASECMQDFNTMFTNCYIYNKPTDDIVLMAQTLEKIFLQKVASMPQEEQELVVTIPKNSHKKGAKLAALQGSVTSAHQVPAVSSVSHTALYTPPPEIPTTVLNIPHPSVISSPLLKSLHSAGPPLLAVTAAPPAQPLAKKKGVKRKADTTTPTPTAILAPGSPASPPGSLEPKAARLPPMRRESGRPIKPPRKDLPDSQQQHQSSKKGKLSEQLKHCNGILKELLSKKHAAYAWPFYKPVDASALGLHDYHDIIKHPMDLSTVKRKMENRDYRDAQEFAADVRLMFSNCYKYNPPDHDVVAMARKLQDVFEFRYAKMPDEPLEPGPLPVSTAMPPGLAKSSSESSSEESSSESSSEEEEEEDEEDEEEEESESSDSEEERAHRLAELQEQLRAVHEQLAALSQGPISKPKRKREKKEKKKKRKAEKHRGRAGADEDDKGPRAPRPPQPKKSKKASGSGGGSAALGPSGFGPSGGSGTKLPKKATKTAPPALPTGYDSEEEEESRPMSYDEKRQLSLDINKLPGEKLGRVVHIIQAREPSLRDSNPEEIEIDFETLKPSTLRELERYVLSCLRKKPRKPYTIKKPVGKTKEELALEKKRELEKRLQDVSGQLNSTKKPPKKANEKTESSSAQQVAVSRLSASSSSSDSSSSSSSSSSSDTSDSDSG

In the case of `COC(=O)CNC(=O)Cc1csc(-c2ccc3cccc(OCCN4CCN(C(=O)C[C@@H]5N=C(c6ccc(Cl)cc6)c6c(sc(C)c6C)-n6c(C)nnc65)CC4)c3c2)n1` [SJ46420], the remaining activity at 0.16 µM (22Rv1, 24 h, read-out: BRD2 level relative to DMSO (100%), 22Rv1, 0.16µM, 24 h, Fig S6f) is reported as 99 ± 7.4%, the remaining activity at 0.31 µM (22Rv1, 24 h, read-out: BRD2 level relative to DMSO (100%), 22Rv1, 0.31µM, 24 h, Fig S6f) is reported as 92 ± 16% and the remaining activity at 0.63 µM (22Rv1, 24 h, read-out: BRD2 level relative to DMSO (100%), 22Rv1, 0.63µM, 24 h, Fig S6f) is reported as 93 ± 8.7%. For the same compound, the remaining activity at 1.3 µM (22Rv1, 24 h, read-out: BRD2 level relative to DMSO (100%), 22Rv1, 1.3µM, 24 h, Fig S6f) was 88 ± 1.3%, the remaining activity at 2.5 µM (22Rv1, 24 h, read-out: BRD2 level relative to DMSO (100%), 22Rv1, 2.5µM, 24 h, Fig S6f) was 83 ± 5.5% and the remaining activity at 5 µM (22Rv1, 24 h, read-out: BRD2 level relative to DMSO (100%), 22Rv1, 5µM, 24 h, Fig S6f) was 87 ± 7.4%. For the same compound, the remaining activity at 10 µM (22Rv1, 24 h, read-out: BRD2 level relative to DMSO (100%), 22Rv1, 10µM, 24 h, Fig S6f) was 92 ± 5.6%, the remaining activity at 2.19382 µM [1] was 94.2% and the remaining activity at 2.79588 µM [1] was 98.7%. It also gave a remaining activity at 3.09691 µM [1] of 88.1%, a remaining activity at 3.39794 µM [1] of 87.2% and a remaining activity at 3.69897 µM [1] of 92.7%. The remaining activity at 4 µM [1] was 96.3%, the Dmax (22Rv1, read-out: BRD2 Dmax, 22Rv1, 24 h dose) was 0% and the remaining activity at 0.156 µM (22Rv1, read-out: BRD2 level, Western blot quantification (DMSO = 100), Fig S6f, 22RV1 KO/rescue Dose Response, 0.156 uM) was 94.2%. It also gave a remaining activity at 0.625 µM (22Rv1, read-out: BRD2 level, Western blot quantification (DMSO = 100), Fig S6f, 22RV1 KO/rescue Dose Response, 0.625 uM) of 98.7%, a remaining activity at 1.25 µM (22Rv1, read-out: BRD2 level, Western blot quantification (DMSO = 100), Fig S6f, 22RV1 KO/rescue Dose Response, 1.25 uM) of 88.1% and a remaining activity at 2.5 µM (22Rv1, read-out: BRD2 level, Western blot quantification (DMSO = 100), Fig S6f, 22RV1 KO/rescue Dose Response, 2.5 uM) of 87.2%. For the same compound, the remaining activity at 5 µM (22Rv1, read-out: BRD2 level, Western blot quantification (DMSO = 100), Fig S6f, 22RV1 KO/rescue Dose Response, 5 uM) was 92.7%, the remaining activity at 10 µM (22Rv1, read-out: BRD2 level, Western blot quantification (DMSO = 100), Fig S6f, 22RV1 KO/rescue Dose Response, 10uM) was 96.3% and the remaining activity at 0.16 µM (24 h, read-out: BRD2 level relative to DMSO (100%), PC3, 0.16µM, 24 h, Fig S6e) was 90 ± 11%. It also gave a remaining activity at 0.31 µM (24 h, read-out: BRD2 level relative to DMSO (100%), PC3, 0.31µM, 24 h, Fig S6e) of 98 ± 2.9%, a remaining activity at 0.63 µM (24 h, read-out: BRD2 level relative to DMSO (100%), PC3, 0.63µM, 24 h, Fig S6e) of 83 ± 3.4% and a remaining activity at 1.3 µM (24 h, read-out: BRD2 level relative to DMSO (100%), PC3, 1.3µM, 24 h, Fig S6e) of 89 ± 5.6%. It also gave a remaining activity at 2.5 µM (24 h, read-out: BRD2 level relative to DMSO (100%), PC3, 2.5µM, 24 h, Fig S6e) of 92 ± 9.1%, a remaining activity at 5 µM (24 h, read-out: BRD2 level relative to DMSO (100%), PC3, 5µM, 24 h, Fig S6e) of 91 ± 7.6% and a remaining activity at 10 µM (24 h, read-out: BRD2 level relative to DMSO (100%), PC3, 10µM, 24 h, Fig S6e) of 88 ± 9.1%. The remaining activity at 0.2 µM (AU565, 8 h, read-out: BRD2 level relative to DMSO (100%), AU565, 0.2µM, 8 h, Fig S6c) was 93 ± 3.1%, the remaining activity at 1 µM (AU565, 8 h, read-out: BRD2 level relative to DMSO (100%), AU565, 1µM, 8 h, Fig S6c) was 96 ± 6.2% and the remaining activity at 5 µM (AU565, 8 h, read-out: BRD2 level relative to DMSO (100%), AU565, 5µM, 8 h, Fig S6c) was 90 ± 5.1%. For the same compound, the remaining activity at 0.2 µM (AU565, read-out: BRD2 level, Western blot quantification (DMSO = 100), Fig S6c, AU565 Cells, 0.2 uM) was 91.6%, the remaining activity at 1 µM (AU565, read-out: BRD2 level, Western blot quantification (DMSO = 100), Fig S6c, AU565 Cells, 1 uM) was 101% and the remaining activity at 5 µM (AU565, read-out: BRD2 level, Western blot quantification (DMSO = 100), Fig S6c, AU565 Cells, 5 uM) was 87%. The remaining activity at 2.5 µM (HEK-293T, 24 h, read-out: BRD2 level relative to DMSO (100%), 293T, 2.5µM, 24 h, Fig S6a) was 89 ± 9.5%, the remaining activity at 5 µM (HEK-293T, 24 h, read-out: BRD2 level relative to DMSO (100%), 293T, 5µM, 24 h, Fig S6a) was 92 ± 2.5% and the remaining activity at 2.5 µM (HEK-293T, read-out: BRD2 level, Western blot quantification (DMSO = 100), Fig S6a, 293T cells, 2.5 uM) was 82%. It also gave a remaining activity at 5 µM (HEK-293T, read-out: BRD2 level, Western blot quantification (DMSO = 100), Fig S6a, 293T cells, 5 uM) of 91.4%, a remaining activity at 2.5 µM (MDA-MB-468, 24 h, read-out: BRD2 level relative to DMSO (100%), MDA-MB-468, 2.5µM, 24 h, Fig S6b) of 79 ± 8.9% and a remaining activity at 5 µM (MDA-MB-468, 24 h, read-out: BRD2 level relative to DMSO (100%), MDA-MB-468, 5µM, 24 h, Fig S6b) of 89 ± 3.9%. The remaining activity at 10 µM (MDA-MB-468, 24 h, read-out: BRD2 level relative to DMSO (100%), MDA-MB-468, 10µM, 24 h, Fig S6b) was 91 ± 3.1%, the remaining activity at 2 µM (MDA-MB-468, read-out: BRD2 level, Western blot quantification (DMSO = 100), Fig S6b, MDA-MB468 Cells, 2 uM) was 73.4% and the remaining activity at 5 µM (MDA-MB-468, read-out: BRD2 level, Western blot quantification (DMSO = 100), Fig S6b, MDA-MB468 Cells, 5 uM) was 86.5%. It also gave a remaining activity at 10 µM (MDA-MB-468, read-out: BRD2 level, Western blot quantification (DMSO = 100), Fig S6b, MDA-MB468 Cells, 10 uM) of 89.6%, a remaining activity at 1.89279 µM (PC-3, read-out: BRD2 (DMSO = 100), PC3 cells, Log SJ46420 (uM) 1.89279, Rep1, Rep2) of 89% and a remaining activity at 2.19382 µM [2] of 83.3%. For the same compound, the remaining activity at 2.49485 µM (PC-3, read-out: BRD2 (DMSO = 100), PC3 cells, Log SJ46420 (uM) 2.49485, Rep1, Rep2) was 100%, the remaining activity at 2.79588 µM [2] was 81.2% and the remaining activity at 3.09691 µM [2] was 85.7%. For the same compound, the remaining activity at 3.39794 µM [2] was 86.6%, the remaining activity at 3.69897 µM [2] was 86.5% and the remaining activity at 4 µM [2] was 81.6%. It also gave a remaining activity at 1 µM (SK-BR-3, 2 h, read-out: BRD2 level relative to DMSO (100%), SKBR3, 1µM, 2hr, Fig S6g) of 71 ± 3.9%, a remaining activity at 5 µM (SK-BR-3, 2 h, read-out: BRD2 level relative to DMSO (100%), SKBR3, 5µM, 2hr, Fig S6g) of 69 ± 10% and a remaining activity at 1 µM (SK-BR-3, 2 h, read-out: BRD2 level, Western blot quantification (DMSO = 100), Fig S6g, SKBR3 Time course, 1 uM, 2hr) of 67.4%. It also gave a remaining activity at 5 µM (SK-BR-3, 2 h, read-out: BRD2 level, Western blot quantification (DMSO = 100), Fig S6g, SKBR3 Time course, 5 uM, 2hr) of 61.5%, a remaining activity at 1 µM (SK-BR-3, 4 h, read-out: BRD2 level relative to DMSO (100%), SKBR3, 1µM, 4hr, Fig S6g) of 82 ± 4% and a remaining activity at 5 µM (SK-BR-3, 4 h, read-out: BRD2 level relative to DMSO (100%), SKBR3, 5µM, 4hr, Fig S6g) of 83 ± 6.1%.
